Laboratory results taken from US4190674A, “3-Fluoro-N-cyclopropylcinnamide” (Burroughs Wellcome Co., priority 1977, dated 1980).

Columns and labels:
Format in all cases: in vivo
mice = assay: Maximal Electroschock Test (MES) in mice; details: Mus musculus, ip
Description: (§1) 1. Maximal Electroschock Test (MES) in mice, a method described by Woodbury and Davenport, Arch int. Pharmacodyn. Ther. 92, P. 97-107 (1952).
(§2) In the MES pharmacological test referred to hereinbefore, the stated compounds had the given ED50 when administered i.p. to mice or rats as appropriate.

muscle tone = assay: Muscle tone in mammals (general statement); details: in words
[1] = test system: polysynaptic reflex contractions; assay: Muscle Relaxant Activity: polysynaptic reflex contractions in the cat; details: oral dose of from 100-150 mg/kg
Description: (§3) The effect of trans 3-fluoro-N-cyclopropylcinnamamide as a centrally acting muscle relaxant was determined using a method based on that described in Berger, F. M. & Bradley, W. (Br. J. Pharmac. Chemother, (1946), 1, 265-272) and Crankshaw, D. P. & Raper, C. (Br. J. Pharmac. (1970), 38, 148-156).

[2] = test system: monosynaptic kneed-jerk reflex; assay: Muscle Relaxant Activity: monosynaptic knee-jerk reflex in the cat; details: oral dose of from 100-150 mg/kg
Description: as §3

rat = assay: Maximal Electroschock Test (MES), rat; details: ip
Description: as §1, §2

O=C(/C=C/c1cccc(Br)c1)NC1CC1 [trans 3-bromo-N-cyclopropylcinnamamide, Trans 3-Bromo-N-cyclopropylcinnamamide]
ED50 (mice): 77 mg/kg

O=C(/C=C/c1cccc(F)c1)NC1CC1 [formula (IA), 3-fluoro-N-cyclopropylcinnamamide]
muscle tone (muscle tone): decreases muscle tone in mammals

O=C(/C=C/c1cccc(F)c1)NC1CC1 [trans 3-fluoro-N-cyclopropylcinnamamide, Trans 3-Fluoro-N-cyclopropylcinnamamide]
ED50 (mice): 60 mg/kg
polysynaptic reflex contractions [1]: suppressed polysynaptic reflex contractions
monosynaptic kneed-jerk reflex [2]: without affecting the monosynaptic kneed-jerk reflex

O=C(/C=C/c1cccc(C(F)(F)F)c1)NC1CC1 [Trans 3-Trifluoromethyl-N-Cyclopropylcinnamamide]
ED50 (rat): 56 mg/kg
